Results reported in patent US12281329B2, “Compositions and methods for immune cell modulation in adoptive immunotherapies” (Fate Therapeutics, Inc., priority 2016, dated 2025).

Tested on: NK cells
Assay: Sorted NK cell populations (CD57/NKG2C) cultured with CHIR99021: maturation
Type: cell-based, human
Details: 7 day
Description: NK Cell Sorting: CD3/CD19 depleted PBMC were labelled with 10 uM e450 proliferation dye (eBioscience) and stained with FITC-conjugated anti-CD57, PE-Conjugated anti-NKG2C, APC-conjugated anti-CD56, and Percp-Cy5.5-conjugated anti-CD3 antibodies (BD Biosciences and R&D Systems). Four populations of CD3-CD56+NK cells were sorted according to the expression of CD57 and NKG2C; CD57+NKG2C−, CD57+NKG2C+, CD57-NKG2C+, and CD57-NKG2C−. Sorted NK cell populations were cultured at a 2:1 ratio of NK:monocytes in BO media with 10 ng/ml IL-15 and CHIR99021 or vehicle control. Stained but unsorted cells were cultured in parallel as a control.
CD3/CD19 depleted PBMC were labelled with e450 proliferation dye, and CD56+CD3− NK cells were sorted in bulk or were sorted into 4 populations based on expression of CD57 and NKG2C expression (FIG. 5A). Total, unfractionated, NK cells were cultured alongside CD57+NKG2C− (Q1), CD57+NKG2C+(Q2), CD57−NKG2C+(Q3), CD57−NKG2C− (Q4) sorted NK cells with either (1) cytokine (10 ng/ml IL15) and 5 μM CHIR99021, or (2) cytokine only with vehicle control (for example, DMSO only) (FIG. 5B) with autologous CD14+ monocytes in a 1:1 ratio of NK cells:monocytes. After the 7 day culture period, cultures of each sorted population were stained for flow cytometry and analyzed for proliferation and cell surface marker expression. […]

Cc1c[nH]c(-c2cnc(NCCNc3ccc(C#N)cn3)nc2-c2ccc(Cl)cc2Cl)n1 [CHIR99021]
expression of CD57 in Q3 and Q4 sorted cells (CD57− before culturing) (10 ng/ml IL15 + 5 μM CHIR99021): upregulated
CD57 expression in the total NK cells (10 ng/ml IL15 + 5 μM CHIR99021, unsorted): significant increase
